How the values were obtained:
[1] = system: L2 mutant (U28A, A29U, G31C, G32C), vector P2-P3 (L2-L3) (RNA, riboswitch, 5-aminoallyl-U at the two dye sites (underlined positions not given)) GCGCGAGCGUUGUAUAAUCCUAAUGAAUUCCUUUGGGAGUUUCUACCAAGAGCCUUAAACUCUUGAUUACAACGCUCGCGC; assay: smFRET; details: 10 mM Tris-HCl pH 8.0
[2] = system: wild-type add aptamer, vector P2-P3 (L2-L3) (RNA, riboswitch, 5-aminoallyl-U at the two dye sites (underlined positions not given)) GCGCGAGCGUUGUAUAAUCCUAAUGAUAUGGUUUGGGAGUUUCUACCAAGAGCCUUAAACUCUUGAUUACAACGCUCGCGC; assay: smFRET
[3] = system: wild-type add aptamer, SHAPE transcript (RNA, riboswitch) GCGCUUCAUAUAAUCCUAAUGAUAUGGUUUGGGAGUUUCUACCAAGAGCCUUAAACUCUUGAUUAUGAAGUAAUUUAUCGUCACGGUGCAUCUACCAUC; assay: SHAPE (NMIA) probing; details: NaCl, 0-10 mM MgCl2; K-HEPES pH 8.0, 37 °C; 2 mM DAP
[4] = system: L2 mutant aptamer, SHAPE transcript (RNA, riboswitch) GCGCUUCAUAUAAUCCUAAUGAAUUCCUUUGGGAGUUUCUACCAAGAGCCUUAAACUCUUGAUUAUGAAGUAAUUUAUCGUCACGGUGCAUCUACCAUC; assay: SHAPE (NMIA) probing; details: NaCl, 0-10 mM MgCl2; K-HEPES pH 8.0, 37 °C; 2 mM DAP
[5] = system: wild-type add aptamer, vector J2/3-P1 (core-P1) (RNA, riboswitch, 5-aminoallyl-U at residue 42 (aptamer numbering) and at a P1 site (position not visible)) GCGCGAGCGUUGUAUAAUCCUAAUGAUAUGGUUUGGGAGUUUCUACCAAGAGCCUUAAACUCUUGAUUACAACGCUCGCGC; assay: smFRET; details: 10 mM NaCl, 10 mM MgCl2; 10 mM Tris-HCl pH 8.0; 1 mM DAP
[6] = system: L2 mutant, vector P1-P2 (RNA, riboswitch, 5-aminoallyl-U at the two dye sites (underlined positions not given)) GCGCGAGCGUUGUAUAAUCCUAAUGAAUUCCUUUGGGAGUUUCUACCAAGAGCCUUAAACUCUUGAUUACAAUGCUCGCGC; assay: smFRET; details: 10 mM NaCl, 10 mM MgCl2; 10 mM Tris-HCl pH 8.0; 1 mM DAP
[7] = system: L2 mutant, vector J2/3-P1 (core-P1) (RNA, riboswitch, 5-aminoallyl-U at residue 42 (aptamer numbering) and at a P1 site (position not visible)) GCGCGAGCGUUGUAUAAUCCUAAUGAAUUCCUUUGGGAGUUUCUACCAAGAGCCUUAAACUCUUGAUUACAACGCUCGCGC; assay: smFRET; details: 10 mM NaCl, 10 mM MgCl2; 10 mM Tris-HCl pH 8.0; 1 mM DAP
[8] = system: wild-type add aptamer, vector P1-P2 (RNA, riboswitch, 5-aminoallyl-U at the two dye sites (underlined positions not given)) GCGCGAGCGUUGUAUAAUCCUAAUGAUAUGGUUUGGGAGUUUCUACCAAGAGCCUUAAACUCUUGAUUACAAUGCUCGCGC; assay: smFRET; details: 10 mM NaCl, 10 mM MgCl2; 10 mM Tris-HCl pH 8.0; 1 mM DAP
[9] = system: L3 mutant, vector P2-P3 (L2-L3) (RNA, riboswitch, 5-aminoallyl-U at the two dye sites (underlined positions not given)) GCGCGAGCGUUGUAUAAUCCUAAUGAUAUGGUUUGGGAGUUUCUACCAAGAGGGUAUAACUCUUGAUUACAACGCUCGCGC; assay: smFRET; details: Na+, Mg2+ (see Figure S3); 10 mM Tris-HCl pH 8.0
[10] = system: L2 mutant, vector P1-P3 (RNA, riboswitch, 5-aminoallyl-U at the two dye sites (underlined positions not given)) GCGCGAGCGUUGUAUAAUCCUAAUGAAUUCCUUUGGGAGUUUCUACCAAGAGCCUUAAACUCUUGAUUACAACGCUCGCGC; assay: smFRET; details: 10 mM NaCl, 10 mM MgCl2; 10 mM Tris-HCl pH 8.0; 1 mM DAP

binding ([1]; Na+, Mg2+ (see Figure S2), adenine concentration varied) | binding ([2]; 200 mM NaCl, 3 M urea, adenine titration) | binding [3] | binding [4] | binding [5] | binding ([1]; 10 mM Na+, no Mg2+, aptamer stays in U state without Mg2+) | binding ([1]; 10 mM NaCl, 10 mM MgCl2, 1 mM DAP) | binding [6] | binding [7] | binding ([2]; 10 mM NaCl, 10 mM MgCl2, 10 mM Tris-HCl pH 8.0, 1 mM DAP, FRET same as Mg2+ alone) | binding [8] | binding [9] | binding [10] | SMILES
yes | yes | – | – | – | – | – | – | – | – | – | – | – | Nc1ncnc2[nH]cnc12
– | – | yes | yes | yes | no | yes | yes | yes | yes | yes | yes | yes | Nc1nc(N)c2[nH]cnc2n1
